Measurements as given in US9884849B2, “Fluorinated benzofuranyl-pyrimidine derivatives containing a sulfoximine group” (Bayer Pharma Aktiengesellschaft, priority 2014, dated 2018).

Assay: Caco-2 permeation assay (Method 4)
Format: in vitro ADME
Conditions: human, 2 μM test compound; for efflux ratio at 2 h, 2 μM: Caco-2, pH 7.2, read-out: Efflux ratio (Papp B-A/Papp A-B); for Papp A→B at 2 h, 2 μM / Papp B→A at 2 h, 2 μM: Caco-2, 2 h incubation, pH 7.2; for Papp A→B at 2 h, 2 μM: read-out: Papp A-B (Mari); for Papp B→A at 2 h, 2 μM: read-out: Papp B-A (Mari)
Procedure: 4. Caco-2 Permeation Assay:
Caco-2 cells (purchased from DSMZ Braunschweig, Germany) were seeded at a density of 4.5×10^4 cells per well on 24 well insert plates, 0.4 μm pore size, and grown for 15 days in DMEM medium supplemented with 10% fetal bovine serum, 1% GlutaMAX (100×, GIBCO), 100 U/mL penicillin, 100 μg/mL streptomycin (GIBCO) and 1% non essential amino acids (100×). Cells were maintained at 37° C. in a humified 5% CO2 atmosphere. Medium was changed every 2-3 day. Before running the permeation assay, the culture medium was replaced by a FCS-free hepes-carbonate transport buffer (pH 7.2). For assessment of monolayer integrity the transepithelial electrical resistance (TEER) was measured. Test compounds were predissolved in DMSO and added either to the apical or basolateral compartment in final concentration of 2 μM in transport buffer. Before and after 2 h incubation at 37° C. samples were taken from both compartments. Analysis of compound content was done after precipitation with methanol by LC/MS/MS analysis. Permeability (Papp) was calculated in the apical to basolateral (A→B) and basolateral to apical (B→A) directions. The apparent permeability was calculated using following equation: Papp=(Vr/Po)(1/S)(P2/t)
Where Vr is the volume of medium in the receiver chamber, Po is the measured peak area or height of the test drug in the donor chamber at t=o, S the surface area of the monolayer, P2 is the measured peak area of the test drug in the acceptor chamber after 2 h of incubation, and t is the incubation time. The efflux ratio basolateral (B) to apical (A) was calculated by dividing the Papp B-A by the Papp A-B. In addition the compound recovery was calculated.

| efflux ratio at 2 h, 2 μM | Papp A→B at 2 h, 2 μM [×10⁻⁶ cm/s] | Papp B→A at 2 h, 2 μM [×10⁻⁶ cm/s] | Compound |
| --- | --- | --- | --- |
| 0.57 | 18.3 | 10.4 | CS(=N)(=O)Cc1cccc(Nc2ncc(F)c(-c3ccc(F)c4ccoc34)n2)c1 (racemic) [Example 4, (rac)-5-Fluoro-4-(4-fluoro-1-benzofuran-7-yl)-N-{3-[(S-methylsulfonimidoyl)-methyl]phenyl}-pyrimidin-2-amine] |
| 0.51 | 22.1 | 11.3 | CS(=N)(=O)Cc1cccc(Nc2ncc(F)c(-c3ccc(F)c4ccoc34)n2)c1 (single isomer, unassigned) [Example 6, 5-Fluoro-4-(4-fluoro-1-benzofuran-7-yl)-N-{3-[(S-methylsulfonimidoyl)-methyl]-phenyl}-pyrimidin-2-amine] |
